Laboratory results taken from PubChem BioAssay AID493193 (Broad Institute, 2011).
Activity calls are given as the source filed them. No rule for the calls is given here.

Experiments:
PubChem AID 493193 = settings: U2OS HRE-luciferase reporter, luminescence, HIF pathway activation; at 38 µM (top of the series)
[1] = system: U2OS HRE-luciferase reporter, luminescence, HIF pathway activation; test: PubChem AID 493193

Structure (SMILES) | activation (PubChem AID 493193) | AC40 [1]
N#CC1(c2ccccc2)CCN(Cc2ccc(O)c3ncccc23)CC1 | 9.09% (inactive) | 
c1ccc(-c2nnc(-c3ccccn3)nc2N2CCC(C3CCCCC3)C2)cc1 (stereo not given) |  | 3.71 µM
CC(C)(C)OC(=O)N1CCN(Cc2ccc(O)c3ncccc23)CC1 | 4.98% (inactive) | 
C[C@@H](Nc1nc(-c2ccccn2)nnc1-c1ccccc1)c1ccccc1 |  | 6.45 µM
Oc1ccc(CNC2Cc3ccccc3C2)c2cccnc12 | 21.4% (inactive) | 
c1ccc(-c2nnc(-c3ccccn3)nc2N2CCC(c3ccccc3)C2)cc1 (stereo not given) |  | 3.55 µM
CC(Nc1nc(-c2ccccn2)nnc1-c1ccccc1)c1ccccc1 (stereo not given) |  | 5.33 µM
c1ccc(-c2nnc(-c3ccccn3)nc2NCC2CCOCC2)cc1 |  | 26.1 µM
Oc1ccc(CN2CCc3ccccc3C2)c2cccnc12 | 0.929% (inactive) | 19.5 µM
CC(C)(C)c1ccc(CNc2nc(-c3ccccn3)nnc2-c2ccccc2)cc1 |  | 2.09 µM
c1ccc(-c2cccc(CNc3nc(-c4ccccn4)nnc3-c3ccccc3)c2)cc1 |  | 2.15 µM
c1ccc(-c2nnc(-c3ccccn3)nc2NCCc2ccccn2)cc1 |  | 15.4 µM
Oc1ccc(CN2CCC(Cc3ccccc3)CC2)c2cccnc12 | 14.5% (inactive) | 
COc1ccccc1N1CCN(Cc2ccc(O)c3ncccc23)CC1 | 10.3% (inactive) | 
c1ccc(CCNc2nc(-c3ccccn3)nnc2-c2ccccc2)cc1 |  | 2.98 µM
CC1CN(Cc2ccc(O)c3ncccc23)CC(C)O1 (stereo not given) | 1.16% (inactive) | 
C[C@H](Nc1nc(-c2ccccn2)nnc1-c1ccccc1)C1CCCCC1 |  | 4.15 µM
COc1ccc(CNc2nc(-c3ccccn3)nnc2-c2ccccc2)cc1 |  | 5.05 µM
Cc1ccc(CNc2nc(-c3ccccn3)nnc2-c2ccccc2)cc1C |  | 3.09 µM
Oc1ccc(CN2CCC3CCCCC3C2)c2cccnc12 (stereo not given) |  | 32.7 µM
CC(C)(C)CCNc1nc(-c2ccccn2)nnc1-c1ccccc1 |  | 2.74 µM
c1ccc(-c2nnc(-c3ccccn3)nc2NCc2cccnc2)cc1 |  | 24.3 µM
C[C@@H](Nc1nc(-c2ccccn2)nnc1-c1ccccc1)C1CCCCC1 |  | 6.18 µM
Clc1cccc(CNc2nc(-c3ccccn3)nnc2-c2ccccc2)c1 |  | 2.5 µM
OCC1CCN(Cc2ccc(O)c3ncccc23)CC1 | 8.79% (inactive) | 
c1ccc(-c2nnc(-c3ccccn3)nc2NCc2ccccn2)cc1 |  | 26 µM
COc1cccc(CNc2nc(-c3ccccn3)nnc2-c2ccccc2)c1 |  | 4.85 µM
Oc1ccc(CNC2CCc3ccccc32)c2cccnc12 (stereo not given) | 7.38% (inactive) | 
c1ccc(-c2ccc(CNc3nc(-c4ccccn4)nnc3-c3ccccc3)cc2)cc1 |  | 1.92 µM
